Assay results as given in ChEMBL document CHEMBL1201861, “Genomics of Drug Sensitity in Cancer screening data, Wellcome Trust Sanger Institute”.

Assays:
[1] = system: NCI-H1993; experiment: cells; type: functional, cell-based; conditions: Homo sapiens;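 further: growth inhibition of the cancer cell line, assessed with a cell viability assay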
Description: SANGER: Inhibition of human NCI-H1993 cell growth in a cell viability assay.

[2] = system: KYSE-140; experiment: cells; type: functional, cell-based; conditions: Homo sapiens;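 further: cell viability assay measuring growth inhibition in human KYSE-140 cells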
Description: SANGER: Inhibition of human KYSE-140 cell growth in a cell viability assay.

[3] = system: MFE-280; experiment: cells; type: functional, cell-based; conditions: Homo sapiens;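 further: growth inhibition of MFE-280 cells, determined with a cell viability readout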
Description: SANGER: Inhibition of human MFE-280 cell growth in a cell viability assay.

[4] = system: CAL-62; experiment: cells; type: functional, cell-based; conditions: Homo sapiens;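 further: growth inhibition of CAL-62 cells, read out with a cell viability assay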
Description: SANGER: Inhibition of human CAL-62 cell growth in a cell viability assay.

[5] = system: MKN-28; experiment: cells; type: functional, cell-based; conditions: Homo sapiens;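 further: cell viability assay read-out, IC50 reflects suppression of growth of human MKN-28 cells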
Description: SANGER: Inhibition of human MKN28 cell growth in a cell viability assay.

[6] = system: NCI-H2196; experiment: cells; type: functional, cell-based; conditions: Homo sapiens;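 further: cell viability assay used as the readout of growth inhibition in NCI-H2196 cells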
Description: SANGER: Inhibition of human NCI-H2196 cell growth in a cell viability assay.

[7] = system: SW1783; experiment: cells; type: functional, cell-based; conditions: Homo sapiens
Description: SANGER: Inhibition of human SW1783 cell growth in a cell viability assay.

[8] = system: NCI-H64; experiment: cells; type: functional, cell-based; conditions: Homo sapiens;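 further: growth inhibition of NCI-H64 cells, read out with a cell viability assay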
Description: SANGER: Inhibition of human NCI-H64 cell growth in a cell viability assay.

[9] = system: OAW-28; experiment: cells; type: functional, cell-based; conditions: Homo sapiens;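 further: growth inhibition of OAW-28 cells, read out with a cell viability assay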
Description: SANGER: Inhibition of human OAW-28 cell growth in a cell viability assay.

[10] = system: TUR; experiment: cells; type: functional, cell-based; conditions: Homo sapiens;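 further: growth inhibition of human TUR cells, read out with a cell viability assay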
Description: SANGER: Inhibition of human TUR cell growth in a cell viability assay.

[11] = system: NCI-H522; experiment: cells; type: functional, cell-based; conditions: Homo sapiens;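 further: cell viability assay measuring growth inhibition of human NCI-H522 cells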
Description: SANGER: Inhibition of human NCI-H522 cell growth in a cell viability assay.

[12] = system: MG-63; experiment: cells; type: functional, cell-based; conditions: Homo sapiens;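 further: growth inhibition of human MG-63 cells, read out with a cell viability assay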
Description: SANGER: Inhibition of human MG-63 cell growth in a cell viability assay.

[13] = system: SU-DHL-1; experiment: SANGER: Inhibition of human SU-DHL-1 cell growth in a cell viability assay.; type: functional, cell-based
[14] = system: KOSC-2; experiment: cells; type: functional, cell-based; conditions: Homo sapiens;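 further: growth inhibition of KOSC-2 cells, read out by a cell viability assay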
Description: SANGER: Inhibition of human KOSC-2 cell growth in a cell viability assay.

[15] = system: MKN-1; experiment: cells; type: functional, cell-based; conditions: Homo sapiens;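 further: growth inhibition of human MKN1 cells, read out by a cell viability measurement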
Description: SANGER: Inhibition of human MKN1 cell growth in a cell viability assay.

[16] = system: JEG-3; experiment: cells; type: functional, cell-based; conditions: Homo sapiens;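 further: growth inhibition of human JEG-3 cells, read out with a cell viability assay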
Description: SANGER: Inhibition of human JEG-3 cell growth in a cell viability assay.

[17] = system: NCI-H358; experiment: cells; type: functional, cell-based; conditions: Homo sapiens;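 further: growth inhibition of NCI-H358 human cells, read out with a cell viability assay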
Description: SANGER: Inhibition of human NCI-H358 cell growth in a cell viability assay.

[18] = system: Capan-2; experiment: cells; type: functional, cell-based; conditions: Homo sapiens;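 further: Capan-2 cell growth inhibition, read out with a viability assay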
Description: SANGER: Inhibition of human Capan-2 cell growth in a cell viability assay.

[19] = system: LU-165; experiment: cells; type: functional, cell-based; conditions: Homo sapiens
Description: SANGER: Inhibition of human LU-165 cell growth in a cell viability assay.

[20] = system: EVSA-T; experiment: cells; type: functional, cell-based; conditions: Homo sapiens;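 further: growth inhibition of EVSA-T cells, read out with a cell viability assay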
Description: SANGER: Inhibition of human EVSA-T cell growth in a cell viability assay.

[21] = system: SIG-M5; experiment: cells; type: functional, cell-based; conditions: Homo sapiens;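 further: cell viability assay read-out, measuring how strongly growth of cultured human SIG-M5 cells is inhibited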
Description: SANGER: Inhibition of human SIG-M5 cell growth in a cell viability assay.

[22] = system: HT-3; experiment: cells; type: functional, cell-based; conditions: Homo sapiens;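 further: growth inhibition measured with a cell viability readout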
Description: SANGER: Inhibition of human HT-3 cell growth in a cell viability assay.

[23] = system: RT-112; experiment: cells; type: functional, cell-based; conditions: Homo sapiens
Description: SANGER: Inhibition of human RT-112 cell growth in a cell viability assay.

[24] = system: OVCAR-3; experiment: cells; type: functional, cell-based; conditions: Homo sapiens;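 further: growth inhibition of human OVCAR-3 cells, determined by a cell viability assay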
Description: SANGER: Inhibition of human OVCAR-3 cell growth in a cell viability assay.

[25] = system: KYSE-180; experiment: cells; type: functional, cell-based; conditions: Homo sapiens;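 further: growth inhibition of KYSE-180 cells, read out with a cell viability assay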
Description: SANGER: Inhibition of human KYSE-180 cell growth in a cell viability assay.

[26] = system: HCT-15; experiment: cells; type: functional, cell-based; conditions: Homo sapiens;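 further: cell viability readout, IC50 reflecting suppression of HCT-15 cell growth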
Description: SANGER: Inhibition of human HCT-15 cell growth in a cell viability assay.

[27] = system: 647-V; experiment: cells; type: functional, cell-based; conditions: Homo sapiens;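 further: growth inhibition of 647-V cells, read out with a cell viability assay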
Description: SANGER: Inhibition of human 647-V cell growth in a cell viability assay.

[28] = system: NB1; experiment: cells; type: functional, cell-based; conditions: Homo sapiens;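 further: reduction of NB1 cell proliferation, read out with a viability assay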
Description: SANGER: Inhibition of human NB1 cell growth in a cell viability assay.

[29] = system: NCI-H1755; experiment: cells; type: functional, cell-based; conditions: Homo sapiens;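 further: cell viability readout used to measure growth inhibition of NCI-H1755 cells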
Description: SANGER: Inhibition of human NCI-H1755 cell growth in a cell viability assay.

[30] = system: YKG-1; experiment: cells; type: functional, cell-based; conditions: Homo sapiens;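 further: cell growth inhibition, read out with a viability assay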
Description: SANGER: Inhibition of human YKG-1 cell growth in a cell viability assay.

[31] = system: HT55; experiment: cells; type: functional, cell-based; conditions: Homo sapiens;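 further: cell viability readout measuring growth inhibition of human HT55 cells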
Description: SANGER: Inhibition of human HT55 cell growth in a cell viability assay.

[32] = system: SK-HEP1; experiment: cells; type: functional, cell-based, SK-HEP-1; conditions: Homo sapiens;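 further: cell viability readout used to quantify reduction in proliferation of human SK-HEP-1 cells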
Description: SANGER: Inhibition of human SK-HEP-1 cell growth in a cell viability assay.

[33] = system: COLO-792; experiment: cells; type: functional, cell-based; conditions: Homo sapiens
Description: SANGER: Inhibition of human COLO-792 cell growth in a cell viability assay.

[34] = system: BFTC-909; experiment: cells; type: functional, cell-based; conditions: Homo sapiens
Description: SANGER: Inhibition of human BFTC-909 cell growth in a cell viability assay.

[35] = system: SAOS-2; experiment: cells; type: functional, cell-based; conditions: Homo sapiens;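 further: growth inhibition of human Saos-2 cells determined by a cell viability assay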
Description: SANGER: Inhibition of human Saos-2 cell growth in a cell viability assay.

[36] = system: AU565; experiment: cells; type: functional, cell-based; conditions: Homo sapiens;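 further: cell viability assay measuring growth inhibition of human AU565 cells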
Description: SANGER: Inhibition of human AU565 cell growth in a cell viability assay.

[37] = system: ME-180; experiment: cells; type: functional, cell-based; conditions: Homo sapiens;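 further: cell viability assay measuring growth inhibition of ME-180 cells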
Description: SANGER: Inhibition of human ME-180 cell growth in a cell viability assay.

[38] = system: SCC-3; experiment: cells; type: functional, cell-based; conditions: Homo sapiens;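 further: cell viability assay measuring inhibition of SCC-3 cell growth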
Description: SANGER: Inhibition of human SCC-3 cell growth in a cell viability assay.

[39] = system: NCI-H1563; experiment: cells; type: functional, cell-based; conditions: Homo sapiens;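 further: growth inhibition of human NCI-H1563 cells, read out with a cell viability assay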
Description: SANGER: Inhibition of human NCI-H1563 cell growth in a cell viability assay.

[40] = system: A673; experiment: cells; type: functional, cell-based; conditions: Homo sapiens;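 further: growth inhibition of human A673 cells, read out through a cell viability assay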
Description: SANGER: Inhibition of human A673 cell growth in a cell viability assay.

[41] = system: CHL-1; experiment: cells; type: functional, cell-based; conditions: Homo sapiens;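 further: cell growth inhibition, read out with a cell viability assay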
Description: SANGER: Inhibition of human CHL-1 cell growth in a cell viability assay.

[42] = system: NCI-H2342; experiment: cells; type: functional, cell-based; conditions: Homo sapiens;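 further: growth inhibition of the cancer cell line, determined with a cell viability assay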
Description: SANGER: Inhibition of human NCI-H2342 cell growth in a cell viability assay.

[43] = system: Huh-7; experiment: cells; type: functional, cell-based; conditions: Homo sapiens;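 further: HuH-7 cell growth inhibition, read out with a cell viability assay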
Description: SANGER: Inhibition of human HuH-7 cell growth in a cell viability assay.

[44] = system: P12-Ichikawa; experiment: cells; type: functional, cell-based; conditions: Homo sapiens
[45] = system: COR-L279; experiment: SANGER: Inhibition of human COR-L279 cell growth in a cell viability assay.; type: functional, cell-based
[46] = system: SW1417; experiment: cells; type: functional, cell-based; conditions: Homo sapiens;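 further: growth inhibition of human SW1417 cells, read out with a cell viability assay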
Description: SANGER: Inhibition of human SW1417 cell growth in a cell viability assay.

[47] = system: MKN-45; experiment: cells; type: functional, cell-based; conditions: Homo sapiens;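 further: growth inhibition of human MKN-45 cells, measured with a cell viability assay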
Description: SANGER: Inhibition of human MKN45 cell growth in a cell viability assay.

[48] = system: SNU-387; experiment: cells; type: functional, cell-based; conditions: Homo sapiens
Description: SANGER: Inhibition of human SNU-387 cell growth in a cell viability assay.

[49] = system: TE-441-T; experiment: cells; type: functional, cell-based; conditions: Homo sapiens
Description: SANGER: Inhibition of human TE-441-T cell growth in a cell viability assay.

[50] = system: HT-1080; experiment: cells; type: functional, cell-based; conditions: Homo sapiens
Description: SANGER: Inhibition of human HT-1080 cell growth in a cell viability assay.

[51] = system: SIMA; experiment: cells; type: functional, cell-based; conditions: Homo sapiens;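 further: growth inhibition of SIMA cells, measured with a cell viability readout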
Description: SANGER: Inhibition of human SIMA cell growth in a cell viability assay.

[52] = system: NCI-H2170; experiment: cells; type: functional, cell-based; conditions: Homo sapiens;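 further: cell viability assay measuring growth inhibition of human NCI-H2170 cancer cells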
Description: SANGER: Inhibition of human NCI-H2170 cell growth in a cell viability assay.

[53] = system: SK-LU-1; experiment: cells; type: functional, cell-based; conditions: Homo sapiens;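 further: cell viability assay measuring growth inhibition of human SK-LU-1 cells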
Description: SANGER: Inhibition of human SK-LU-1 cell growth in a cell viability assay.

[54] = system: KYSE-270; experiment: cells; type: functional, cell-based; conditions: Homo sapiens;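 further: cell growth inhibition measured with a viability assay in the human KYSE-270 line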
Description: SANGER: Inhibition of human KYSE-270 cell growth in a cell viability assay.

[55] = system: UMUC3; experiment: cells; type: functional, cell-based; conditions: Homo sapiens;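 further: growth inhibition of human UM-UC-3 cells, read out with a cell viability assay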
Description: SANGER: Inhibition of human UM-UC-3 cell growth in a cell viability assay.

[56] = system: NCI-H2009; experiment: cells; type: functional, cell-based; conditions: Homo sapiens;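 further: cell viability assay measuring inhibition of NCI-H2009 cell growth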
Description: SANGER: Inhibition of human NCI-H2009 cell growth in a cell viability assay.

[57] = system: OVCAR-8; experiment: cells; type: functional, cell-based; conditions: Homo sapiens;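 further: growth inhibition of human OVCAR-8 cells, read out by a cell viability assay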
Description: SANGER: Inhibition of human OVCAR-8 cell growth in a cell viability assay.

[58] = system: SW1088; experiment: cells; type: functional, cell-based; conditions: Homo sapiens;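 further: growth inhibition of human SW1088 cells, read out by a cell viability assay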
Description: SANGER: Inhibition of human SW1088 cell growth in a cell viability assay.

[59] = system: MONO-MAC-6; experiment: cells; type: functional, cell-based; conditions: Homo sapiens;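 further: cell viability assay measuring growth inhibition of human MONO-MAC-6 cells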
Description: SANGER: Inhibition of human MONO-MAC-6 cell growth in a cell viability assay.

[60] = system: T98G; experiment: cells; type: functional, cell-based; conditions: Homo sapiens
Description: SANGER: Inhibition of human T98G cell growth in a cell viability assay.

[61] = system: NCI-H596; experiment: cells; type: functional, cell-based; conditions: Homo sapiens
Description: SANGER: Inhibition of human NCI-H596 cell growth in a cell viability assay.

[62] = system: KYSE-450; experiment: cells; type: functional, cell-based; conditions: Homo sapiens
Description: SANGER: Inhibition of human KYSE-450 cell growth in a cell viability assay.

[63] = system: TCC-SUP; experiment: cells; type: functional, cell-based; conditions: Homo sapiens
Description: SANGER: Inhibition of human TCCSUP cell growth in a cell viability assay.

[64] = system: KP-4; experiment: cells; type: functional, cell-based; conditions: Homo sapiens
Description: SANGER: Inhibition of human KP-4 cell growth in a cell viability assay.

In the case of `CO[C@@]12[C@H](COC(N)=O)C3=C(C(=O)C(C)=C(N)C3=O)N1C[C@@H]1N[C@@H]12` [MITOMYCIN], the IC50 [1] is reported as > 16000 nM, the IC50 [2] is reported as 381 nM and the IC50 [3] is reported as 8350 nM. For the same compound, the IC50 [4] was 242 nM, the IC50 [5] was 230 nM and the IC50 [6] was 886 nM. For the same compound, the IC50 [7] was 38.6 nM, the IC50 [8] was 1530 nM and the IC50 [9] was 441 nM. The IC50 [10] was 190 nM, the IC50 [11] was 169 nM and the IC50 [12] was 226 nM. The IC50 [13] was < 62.5 nM, the IC50 [14] was 1530 nM and the IC50 [15] was 541 nM. For the same compound, the IC50 [16] was 2230 nM, the IC50 [17] was 276 nM and the IC50 [18] was 2790 nM. For the same compound, the IC50 [19] was 513 nM, the IC50 [20] was 1570 nM and the IC50 [21] was < 62.5 nM. The IC50 [22] was < 62.5 nM, the IC50 [23] was 178 nM and the IC50 [24] was 1130 nM. For the same compound, the IC50 [25] was 202 nM, the IC50 [26] was 465 nM and the IC50 [27] was 87.4 nM. It also gave an IC50 [28] of 187 nM, an IC50 [29] of 5440 nM and an IC50 [30] of 545 nM. The IC50 [31] was 1950 nM, the IC50 [32] was 646 nM and the IC50 [33] was 1500 nM. For the same compound, the IC50 [34] was 85.3 nM, the IC50 [35] was 1410 nM and the IC50 [36] was 501 nM. The IC50 [37] was 40.1 nM, the IC50 [38] was < 62.5 nM and the IC50 [39] was 1430 nM. For the same compound, the IC50 [40] was 790 nM, the IC50 [41] was 225 nM and the IC50 [42] was 62.5 nM. The IC50 [43] was 3220 nM, the IC50 [44] was < 62.5 nM and the IC50 [45] was < 62.5 nM. It also gave an IC50 [46] of 1010 nM, an IC50 [47] of 165 nM and an IC50 [48] of 2930 nM. For the same compound, the IC50 [49] was 1600 nM, the IC50 [50] was 354 nM and the IC50 [51] was 241 nM. For the same compound, the IC50 [52] was < 62.5 nM, the IC50 [53] was < 62.5 nM and the IC50 [54] was 103 nM. It also gave an IC50 [55] of 102 nM, an IC50 [56] of 289 nM and an IC50 [57] of 176 nM. The IC50 [58] was 4670 nM, the IC50 [59] was 72.4 nM and the IC50 [60] was 524 nM. The IC50 [61] was 1540 nM, the IC50 [62] was 563 nM and the IC50 [63] was 482 nM.

With `C/C=C(/C)C(=O)O[C@H]1C(C)=C2[C@H]([C@@H]1OC(=O)CCCCCCC)[C@@](C)(OC(C)=O)C[C@H](OC(=O)CCC)[C@@]1(O)[C@H]2OC(=O)[C@@]1(C)O` [THAPSIGARGIN] the IC50 [1] was > 512 nM, the IC50 [2] was < 2 nM and the IC50 [3] was 36.6 nM. The IC50 [4] was 71.6 nM, the IC50 [5] was 9.79 nM and the IC50 [6] was > 512 nM. The IC50 [7] was 9.24 nM, the IC50 [8] was 6.45 nM and the IC50 [9] was 50.3 nM. For the same compound, the IC50 [10] was 12.5 nM, the IC50 [11] was 5.43 nM and the IC50 [12] was 2.79 nM. The IC50 [13] was > 512 nM, the IC50 [14] was 425 nM and the IC50 [15] was 47.4 nM. For the same compound, the IC50 [16] was 9.78 nM, the IC50 [17] was < 2 nM and the IC50 [18] was < 2 nM. The IC50 [19] was > 512 nM, the IC50 [20] was 122 nM and the IC50 [21] was < 2 nM. For the same compound, the IC50 [22] was 21.7 nM, the IC50 [23] was 4.22 nM and the IC50 [24] was < 2 nM. The IC50 [25] was 1.16 nM, the IC50 [26] was 155 nM and the IC50 [27] was 13.7 nM. For the same compound, the IC50 [28] was 27.1 nM, the IC50 [29] was 310 nM and the IC50 [30] was 7.72 nM. The IC50 [31] was > 512 nM, the IC50 [32] was 7.8 nM and the IC50 [33] was 59.6 nM. For the same compound, the IC50 [34] was 0.968 nM, the IC50 [35] was 14.7 nM and the IC50 [36] was 1.2 nM. For the same compound, the IC50 [37] was > 512 nM, the IC50 [38] was 41.6 nM and the IC50 [39] was 199 nM. The IC50 [40] was 7.24 nM, the IC50 [41] was 12.5 nM and the IC50 [42] was < 2 nM. The IC50 [43] was < 2 nM, the IC50 [44] was 24.5 nM and the IC50 [45] was 36.3 nM. The IC50 [46] was 335 nM, the IC50 [47] was 25.4 nM and the IC50 [48] was 2.2 nM. For the same compound, the IC50 [49] was 48.8 nM, the IC50 [50] was < 2 nM and the IC50 [51] was 38.4 nM. For the same compound, the IC50 [52] was 14.4 nM, the IC50 [53] was 1.16 nM and the IC50 [54] was 1.49 nM. It also gave an IC50 [55] of 1.21 nM, an IC50 [56] of 1.63 nM and an IC50 [57] of 25 nM. It also gave an IC50 [64] of 2.64 nM, an IC50 [58] of 324 nM and an IC50 [59] of 3.8 nM. It also gave an IC50 [60] of 0.741 nM, an IC50 [61] of 38.9 nM and an IC50 [62] of 0.777 nM. It also gave an IC50 [63] of 51.6 nM.
